# Patent US8003688B2, “Method of treating symptoms of common cold, allergic rhinitis and infections relating to the respiratory tract” (ImmuPharm Aps, priority 2000, dated 2011)
# Tests used:
# WISH cells = test: Toxicity to WISH cells; assay type: cell-based
# Protocol: (§1) An experiment similar to Example 3 was carried out in which various, but constant concentrations of either Troxerutin or Veneruton or other relevant derivatives were added together with the 2-fold dilutions of interferon to WISH cells. A typical example from this series of experiments yielded no potentiation of the interferon system, (<1%) at all at Troxerutin levels below 2.5 mg/ml. Troxerutin concentrations higher than 2.5 mg/ml are toxic to the cells.
# [1] = test system: Rhino Virus (1A, 15 or 39); test: Potentiation of interferon antiviral activity vs. rhino virus in WISH cells; assay type: cell-based, rhinovirus; settings: Troxerutin levels below 2.5 mg/ml added with 2-fold dilutions of interferon
# Protocol: 3.000 WISH cells were seeded in a microtray and on the following morning, the medium was replaced with 2-fold dilutions (from a 0-30 units/ml stock solution) of HuIFN-α-2b (Intron A) in fresh medium comprising 2% serum. After incubation overnight, the medium was replaced with fresh medium comprising challenge virus and incubated at 33° C., 5% CO2 for 3-5 days and processed further as described in Example 2.
# as §1
# [2] = test system: rhinovirus (1A, 15 or 39); test: Antiviral activity against rhinovirus in WISH cells measured via the MTS-system; assay type: cell-based; settings: challenge virus, MTS read-out, Quercetin at levels not toxic to the cells
# Protocol: Rhinovirus 1A, rhinovirus 15 and rhinovirus 39 were titrated according to the tetra zolium salt (MTS)-method (Berg et al., 1989; Berg and Owen, 2001a, Hansen et al., 1989). WISH cells were seeded in a micro tray at 3000 cells per well and incubated at 37° C., 5% CO2 overnight; the following morning the medium Was replaced with 10-fold dilutions of either rhinovirus 1A, rhinovirus 15 or rhinovirus 39, respectively, in fresh medium and the trays were incubated 4-5 days at 33° C.; a microscopical examination confirmed that the CytoPathogenic Effect (CPE) was fully developed (CPE equal to 100%). […] To quantitate the CPE in terms of % destruction, MTS (Berg and Owen, 2001a) was added to all cultures and after 3 h incubation at 37° C. (without CO2) the trays were read in a scanner as previuosly described (Berg et al, 1989, Hansen et al., 1989). […]
# WISH cells were seeded in wells in a microtray and incubated for 24 h at 34° C., 5% CO2; the medium was replaced with fresh medium comprising 2-fold dilutions of ZnGluconate (diluted 1:10 from a 1% stock dilutions) and incubated further for […] at 33° C., 5% CO2; on the following day challenge virus was added and after 3-5 days at 33° C., 5% , CO2, MTS was added and the microtray was measured in an OD-scanner (Berg et al., 1989; Hansen et al., 1989). […]
SMILES,concentrations toxic to the cells (WISH cells),potentiation of the interferon system [1] [%],protection against rhinovirus [2] [%]
"C[C@@H]1O[C@@H](OC[C@H]2O[C@@H](Oc3c(-c4ccc(OCCO)c(OCCO)c4)oc4cc(OCCO)cc(O)c4c3=O)[C@H](O)[C@@H](O)[C@@H]2O)[C@H](O)[C@H](O)[C@H]1O [Troxerutin, troxerutin]",higher than 2.5 mg/ml,< 1,–
O=C([O-])[C@H](O)[C@@H](O)[C@H](O)[C@H](O)CO.O=C([O-])[C@H](O)[C@@H](O)[C@H](O)[C@H](O)CO.[Zn+2] [ZnGluconate],–,–,< 2
